In the NIST ThermoML archive (doi:10.1021/je300799f):

Assay: xn = mol fraction of the nth substance listed
Details: 101 kPa, Liquid, Vibrating tube method

CCCC(=O)OCC [ethyl butanoate] + CCCCCCCCC
Details | mass density [kg/m3]
288.15 K, x1 = 0.0379 | 725.8
288.15 K, x1 = 0.1046 | 733.19
288.15 K, x1 = 0.1502 | 738.59
288.15 K, x1 = 0.2013 | 744.84
288.15 K, x1 = 0.2499 | 751.04
288.15 K, x1 = 0.3047 | 758.28
288.15 K, x1 = 0.3427 | 763.5
288.15 K, x1 = 0.3961 | 771.2
288.15 K, x1 = 0.4355 | 776.9
288.15 K, x1 = 0.4957 | 786.1
288.15 K, x1 = 0.5455 | 794.1
288.15 K, x1 = 0.5857 | 800.8
288.15 K, x1 = 0.6498 | 811.8
288.15 K, x1 = 0.7067 | 822.09
288.15 K, x1 = 0.752 | 830.65
288.15 K, x1 = 0.8019 | 840.45
288.15 K, x1 = 0.8502 | 850.42
288.15 K, x1 = 0.904 | 861.91
288.15 K, x1 = 0.9569 | 873.91
288.15 K, x1 = 1 | 884.01
298.15 K, x1 = 0.0486 | 719.05
298.15 K, x1 = 0.0906 | 723.69
298.15 K, x1 = 0.1007 | 724.84
298.15 K, x1 = 0.1495 | 730.49
298.15 K, x1 = 0.2442 | 742.05
298.15 K, x1 = 0.2985 | 749.08
298.15 K, x1 = 0.3131 | 750.97
298.15 K, x1 = 0.3518 | 756.23
298.15 K, x1 = 0.4357 | 768.18
298.15 K, x1 = 0.5028 | 778.32
298.15 K, x1 = 0.5511 | 785.92
298.15 K, x1 = 0.5974 | 793.57
298.15 K, x1 = 0.703 | 811.93
298.15 K, x1 = 0.746 | 819.92
298.15 K, x1 = 0.7879 | 827.92
298.15 K, x1 = 0.8532 | 841.01
298.15 K, x1 = 0.9053 | 852.07
298.15 K, x1 = 1 | 873.5
308.15 K, x1 = 0.0505 | 711.25
308.15 K, x1 = 0.0818 | 714.63
308.15 K, x1 = 0.1528 | 722.65
308.15 K, x1 = 0.1872 | 726.67
308.15 K, x1 = 0.2112 | 729.53
308.15 K, x1 = 0.2818 | 738.36
308.15 K, x1 = 0.3302 | 744.66
308.15 K, x1 = 0.3685 | 749.81
308.15 K, x1 = 0.426 | 757.85
308.15 K, x1 = 0.4773 | 765.37
308.15 K, x1 = 0.5187 | 771.59
308.15 K, x1 = 0.5712 | 779.88
308.15 K, x1 = 0.642 | 791.55
308.15 K, x1 = 0.6753 | 797.37
308.15 K, x1 = 0.726 | 806.38
308.15 K, x1 = 0.7822 | 816.86
308.15 K, x1 = 0.833 | 826.88
308.15 K, x1 = 0.878 | 836.1
308.15 K, x1 = 0.9384 | 848.96
308.15 K, x1 = 1 | 862.85
318.15 K, x1 = 0.0435 | 702.45
318.15 K, x1 = 0.1009 | 708.56
318.15 K, x1 = 0.1439 | 713.46
318.15 K, x1 = 0.2001 | 719.85
318.15 K, x1 = 0.2489 | 725.77
318.15 K, x1 = 0.2861 | 730.43
318.15 K, x1 = 0.355 | 739.26
318.15 K, x1 = 0.402 | 745.62
318.15 K, x1 = 0.4556 | 753.18
318.15 K, x1 = 0.4988 | 759.53
318.15 K, x1 = 0.547 | 766.88
318.15 K, x1 = 0.6011 | 775.45
318.15 K, x1 = 0.656 | 784.53
318.15 K, x1 = 0.6951 | 791.27
318.15 K, x1 = 0.7543 | 801.83
318.15 K, x1 = 0.7999 | 810.52
318.15 K, x1 = 0.8485 | 819.97
318.15 K, x1 = 0.8947 | 829.27
318.15 K, x1 = 0.9545 | 842.03
318.15 K, x1 = 1 | 852.26
328.15 K, x1 = 0.0481 | 695.05
328.15 K, x1 = 0.1134 | 701.93
328.15 K, x1 = 0.1627 | 707.35
328.15 K, x1 = 0.2102 | 712.81
328.15 K, x1 = 0.2589 | 718.53
328.15 K, x1 = 0.3111 | 725
328.15 K, x1 = 0.3588 | 731.17
328.15 K, x1 = 0.402 | 736.91
328.15 K, x1 = 0.4562 | 744.36
328.15 K, x1 = 0.5565 | 759.06
328.15 K, x1 = 0.5996 | 765.77
328.15 K, x1 = 0.6524 | 774.29
328.15 K, x1 = 0.7062 | 783.42
328.15 K, x1 = 0.7544 | 791.91
328.15 K, x1 = 0.806 | 801.44
328.15 K, x1 = 0.8433 | 808.67
328.15 K, x1 = 0.8917 | 818.28
328.15 K, x1 = 0.9532 | 831.23
328.15 K, x1 = 1 | 841.55

CCCC(=O)OC [methyl butanoate] + CCCCCCC
Details | mass density [kg/m3]
288.15 K, x1 = 0.0478 | 695.54
288.15 K, x1 = 0.094 | 702.79
288.15 K, x1 = 0.1411 | 710.56
288.15 K, x1 = 0.2025 | 720.91
288.15 K, x1 = 0.2476 | 728.91
288.15 K, x1 = 0.2996 | 738.37
288.15 K, x1 = 0.3531 | 748.53
288.15 K, x1 = 0.4112 | 759.9
288.15 K, x1 = 0.4484 | 767.46
288.15 K, x1 = 0.5023 | 778.63
288.15 K, x1 = 0.5526 | 789.52
288.15 K, x1 = 0.5984 | 799.7
288.15 K, x1 = 0.6471 | 810.83
288.15 K, x1 = 0.7077 | 825.2
288.15 K, x1 = 0.7463 | 834.68
288.15 K, x1 = 0.798 | 847.73
288.15 K, x1 = 0.8912 | 872.29
288.15 K, x1 = 0.9493 | 888.46
288.15 K, x1 = 1 | 903.31
298.15 K, x1 = 0.0485 | 686.88
298.15 K, x1 = 0.0876 | 693
298.15 K, x1 = 0.1389 | 701.34
298.15 K, x1 = 0.2122 | 713.65
298.15 K, x1 = 0.2586 | 721.76
298.15 K, x1 = 0.302 | 729.67
298.15 K, x1 = 0.3571 | 739.98
298.15 K, x1 = 0.4019 | 748.57
298.15 K, x1 = 0.4492 | 758.07
298.15 K, x1 = 0.5017 | 768.87
298.15 K, x1 = 0.5573 | 780.67
298.15 K, x1 = 0.5952 | 789.01
298.15 K, x1 = 0.6466 | 800.69
298.15 K, x1 = 0.7063 | 814.61
298.15 K, x1 = 0.7424 | 823.41
298.15 K, x1 = 0.7993 | 837.66
298.15 K, x1 = 0.8623 | 853.85
298.15 K, x1 = 0.9015 | 864.37
298.15 K, x1 = 0.9507 | 878.23
298.15 K, x1 = 1 | 892.31
308.15 K, x1 = 0.063 | 680.36
308.15 K, x1 = 0.117 | 688.78
308.15 K, x1 = 0.187 | 700.22
308.15 K, x1 = 0.3025 | 720.34
308.15 K, x1 = 0.417 | 741.86
308.15 K, x1 = 0.5047 | 759.48
308.15 K, x1 = 0.5651 | 772.28
308.15 K, x1 = 0.5933 | 778.47
308.15 K, x1 = 0.6532 | 791.9
308.15 K, x1 = 0.7045 | 803.77
308.15 K, x1 = 0.7487 | 814.31
308.15 K, x1 = 0.7648 | 818.37
308.15 K, x1 = 0.789 | 824.36
308.15 K, x1 = 0.8514 | 840.37
308.15 K, x1 = 0.8818 | 848.32
308.15 K, x1 = 0.9257 | 860.13
308.15 K, x1 = 0.9603 | 869.83
308.15 K, x1 = 1 | 881.19
318.15 K, x1 = 0.0768 | 673.72
318.15 K, x1 = 0.089 | 675.62
318.15 K, x1 = 0.1535 | 685.7
318.15 K, x1 = 0.2117 | 695.29
318.15 K, x1 = 0.2567 | 702.97
318.15 K, x1 = 0.305 | 711.44
318.15 K, x1 = 0.3544 | 720.36
318.15 K, x1 = 0.4042 | 729.76
318.15 K, x1 = 0.4351 | 735.72
318.15 K, x1 = 0.5011 | 748.89
318.15 K, x1 = 0.5487 | 758.83
318.15 K, x1 = 0.5962 | 768.97
318.15 K, x1 = 0.6971 | 791.66
318.15 K, x1 = 0.7469 | 803.4
318.15 K, x1 = 0.7973 | 815.75
318.15 K, x1 = 0.8454 | 827.9
318.15 K, x1 = 0.8948 | 840.81
318.15 K, x1 = 0.9513 | 856.25
318.15 K, x1 = 1 | 870.06
328.15 K, x1 = 0.044 | 659.99
328.15 K, x1 = 0.0921 | 667.12
328.15 K, x1 = 0.1388 | 674.29
328.15 K, x1 = 0.189 | 682.37
328.15 K, x1 = 0.2611 | 694.33
328.15 K, x1 = 0.3006 | 701.19
328.15 K, x1 = 0.4098 | 721.06
328.15 K, x1 = 0.4532 | 729.42
328.15 K, x1 = 0.5031 | 739.32
328.15 K, x1 = 0.5522 | 749.41
328.15 K, x1 = 0.5979 | 759.1
328.15 K, x1 = 0.6473 | 769.85
328.15 K, x1 = 0.706 | 783.28
328.15 K, x1 = 0.7456 | 792.62
328.15 K, x1 = 0.7926 | 803.93
328.15 K, x1 = 0.86 | 820.85
328.15 K, x1 = 0.9028 | 832.08
328.15 K, x1 = 0.9508 | 845.05
328.15 K, x1 = 1 | 858.8
